Like-named read-outs stand apart in the source and are kept apart here. Marks after values point to notes of the source that are not given here.
Assays:
[1] = Solubility free acid vs. salt, shake-flask method (Example 12); format: physicochemical
[2] = Thermodynamic stability of polymorphic form; format: physicochemical
[3] = Hygroscopy, dynamic vapour sorption (DVS) isotherms (Example 15); format: physicochemical; conditions: for Change in mass [%], Desorption / Change in mass [%], Sorption: listed as Cholinate Form A
Experimental: Water sorption isotherms were determined using a DVS Resolution gravimetric sorption analyzer (London, UK), or a DVS Intrinsic instrument (Surface measurement Systems). The sample was dried for 1000 minutes at 0% relative humidity (R.H.). Afterwards the dry weight was recorded. […] The equilibrium criterion for each relative humidity set point was 0.002% per minute relative mass change as a function of time.

[4] = Dissolution profile, flow through cell in FeSSIF / FaSSIF (Example 16); format: physicochemical; conditions: micronized samples
Experimental: Prior to the measurements, the samples were micronized using a jet mill (MC DECJET 30) under nitrogen, with a pressure of 4.5 Bar for the injector and 4.0 Bar grinding pressure.
Dissolution rates of the drug substance were then determined using a flow through cell (FTC) from Sotax. All experiments were conducted in triplicates.
Then, the respective medium (FaSSIF or FeSSIF) was pumped through the cell with a pump rate of 2 mL/min for a total time of 14 minutes, resulting in a total volume of 28 mL. This volume was collected in time increments of 2 minutes, leading to 7 collected fractions with 4 mL each. The drug substance concentration of each fraction was determined by HPLC (external standard).

[5] = Determination of exposure in rat after intragastric administration (Example 13); format: in vivo; conditions: for AUC(0-t): female, plasma, po, read-out: AUC(0-tlast); for AUC(0-t) / AUC(0-tlast)norm / AUC(0-tlast): free acid in rat plasma
Experimental: Determination of exposure after intragastric application of test compounds was performed in female conscious rats with a body weight of 0.2 kg (minimum) to 0.25 kg (maximum). The test compounds were applied as bolus via intragastric probe to unfed female rats in solution or suspension in the vehicle ethanol/solutol/water (v/v/v 10/40/50).
At the indicated timepoints between 8 min and 24 h after dosing, 150 μl blood were sampled via a catheter from the vena jugularis. The samples were treated with K-EDTA as anticoagulant and stored cooled until further processing (refrigerator, 4° C.). The samples were centrifuged (15 min, 3000 rpm), then an aliquot of 100 μL was taken from the supernatant (plasma), precipitated by addition of 400 μL cold acetonitrile or methanol (abs.) and frozen at −20° C. over night. The samples were centrifuged (15 min, 3000 rpm), then 150 μL of the clear supernatant were taken for analytical testing. Analytics were performed using an Agilent 1200 HPLC-system with LCMS/MS detection.
The applied dose of cholinate according to the invention was adjusted as compared to free acid according to the difference in molecular weight. The resulting equivalent doses were used for comparison.

[6] = Solubility of cholinate vs free acid and other salts, shake-flask method (Example 14); format: physicochemical; conditions: aqueous solvents, pH 4.5 and above, FeSSIF and FaSSIF
Experimental: (§1) Preparation of FaSSIF (Fasted State Simulated Intestinal Fluid) blank solution: 4.2 g NaOH, 44.7 g NaH2PO4*2 H2O, and 61.86 g NaCl were dissolved in approximately 9.5 L demineralized water. Then, the pH of this solution was adjusted to 6.50+/−0.05 using HCl or NaOH, respectively. In the last step, the final volume was adjusted to 10.0 L by the addition of demineralized water.
Preparation of the final FaSSIF solution: 4.48 g SIF (Simulated Intestinal Fluids) powder (provider: biorelevant.com, Product code: FFF01 (May 2022)) were dissolved in approximately 500 mL FaSSIF blank solution, then the final volume was adjusted to 2.0 L by the addition of FaSSIF blank solution. After 2 hours, the solution was considered to be ready to use and was used within 48 hours.
as §1, with “FeSSIF (Fed” for “FaSSIF (Fasted”, “40.4” for “4.2”, “118.74” for “44.7”, “NaCl,” for “NaH2PO4*2 H2O,”, “82.4 mL glacial acetic acid” for “61.86 g NaCl”, “5.00+/−0.05” for “6.50+/−0.05”
Preparation of the final FeSSIF solution: 22.4 g SIF powder (provider: biorelevant.com, Product code: FFF01 (May 2022)) were dissolved in approximately 500 mL FeSSIF blank solution, then the final volume was adjusted to 2.0 L by the addition of FeSSIF blank solution. The solution was considered to be ready to use immediately after manufacturing and was used within 48 hours.

O=C(O)c1cc(NC(=O)C2(c3ccc(C(F)(F)F)cc3F)CC2)ccc1-c1cnn(C2CCC2)c1 [cholinate, 2-hydroxy-N,N,N-trimethylethanaminium 2-(1-cyclobutyl-1H-pyrazol-4-yl)-5-[({1-[2-fluoro-4-(trifluoromethyl)phenyl]cyclopropyl}carbonyl)amino]benzoate]
solubility ([1]; 0.1M HCl, 25 °C, simulated gastric fluid, thermodynamic from solid, 0.1M HCl, 25° C., read-out: Solubility): < 1 µg/mL | solubility ([1]; Acetone, 25° C.): 412 µg/mL | solubility ([1]; Acetonitrile, 25° C.): 3797 µg/mL | solubility ([1]; Ethanol, 25° C.): >12500 µg/mL | solubility ([1]; PEG 400, 25° C.): 19159 µg/mL | solubility ([1]; Phosphate buffer pH 8, 25° C.): 10798 µg/mL | solubility ([1]; Solutol/Ethanol/Water (40/10/50 V/V/V), 25° C.): >35000 µg/mL | solubility ([1]; Water, 25° C., stirred overnight): >12500** mg/L | solubility ([1]; acetate buffer, 25 °C, pH 4.5, aqueous buffer, thermodynamic from solid, Acetate buffer pH 4.5, 25° C., read-out: Solubility): 2 µg/mL | pH of the clear solution ([1]; solubility test in water, pH of water before stirring: 5.57): **pH of the clear solution: 8.32, pH of water before stirring: 5.57 | Thermodynamic stability of the solid form [2]: thermodynamically stable at room temperature and at least up to 35 °C | Change in mass [%], Desorption ([3]; 0% Relative humidity): −0.14% | Change in mass [%], Sorption ([3]; 0% Relative humidity): 0.00% | Change in mass [%], Desorption ([3]; 10% Relative humidity): 2.50% | Change in mass [%], Sorption ([3]; 10% Relative humidity): 0.36% | Change in mass [%], Desorption ([3]; 20% Relative humidity): 3.59% | Change in mass [%], Sorption ([3]; 20% Relative humidity): 0.56% | Change in mass [%], Desorption ([3]; 30% Relative humidity): 5.08% | Change in mass [%], Sorption ([3]; 30% Relative humidity): 0.75% | Change in mass [%], Desorption ([3]; 40% Relative humidity): 6.98% | Change in mass [%], Sorption ([3]; 40% Relative humidity): 0.95% | Change in mass [%], Desorption ([3]; 50% Relative humidity): 9.30% | Change in mass [%], Sorption ([3]; 50% Relative humidity): 1.21% | Change in mass [%], Desorption ([3]; 60% Relative humidity): 12.14% | Change in mass [%], Sorption ([3]; 60% Relative humidity): 1.61% | Change in mass [%], Desorption ([3]; 70% Relative humidity): 16.02% | Change in mass [%], Sorption ([3]; 70% Relative humidity): 2.11% | Change in mass [%], Desorption ([3]; 80% Relative humidity): 21.87% | Change in mass [%], Sorption ([3]; 80% Relative humidity): 3.05% | Change in mass [%], Desorption ([3]; 90% Relative humidity): 33.33% | Change in mass [%], Sorption ([3]; 90% Relative humidity): 18.30% | Change in mass [%], Desorption ([3]; 95% Relative humidity): 46.21% | Change in mass [%], Sorption ([3]; 95% Relative humidity): 46.21% | Hygroscopicity, comparison in words ([3]; in particular at 30-50% relative humidity): less hygroscopic than the other salts | DVS Dm @ 30% R.H. (Sorption) ([3]; summarized results, 30% R.H.): 0.8% | DVS Dm @ 50% R.H. (Sorption) ([3]; summarized results, 50% R.H.): 1.2% | DVS Dm @ 80% R.H. (Sorption) ([3]; summarized results, 80% R.H.): 3.1% | Dissolution profile, comparison in words [4]: better dissolution profile than the other salts | AUC(0-t) ([5]; rat, 10 mg/kg, dose equiv. 10 mg/kg): 60 µg·h/mL | AUC(0-t) ([5]; rat, 248 mg/kg, dose equiv. 248 mg/kg): 745 µg·h/mL | AUC(0-t) ([5]; rat, 495 mg/kg, dose equiv. 495 mg/kg): 1000 µg·h/mL | AUC(0-tlast)norm ([5]; dose equiv. 10 mg/kg): 6 kg·h/L | AUC(0-tlast) ([5]; dose equiv. 30 mg/kg): 146 µg·h/mL | AUC(0-tlast)norm ([5]; dose equiv. 30 mg/kg): 4.8 kg·h/L | AUC(0-tlast) ([5]; dose equiv. 100 mg/kg): 447 µg·h/mL | AUC(0-tlast)norm ([5]; dose equiv. 100 mg/kg): 4.5 kg·h/L | AUC(0-tlast)norm ([5]; dose equiv. 248 mg/kg): 3 kg·h/L | AUC(0-tlast)norm ([5]; dose equiv. 495 mg/kg): 2 kg·h/L | Increase of plasma exposure of free acid with dose ([5]; rat, doses above 30 mg/kg, listed as cholinate salt): dose-proportional increase of exposure up to a dose of approximately 100 mg/kg | aqueous solubility, comparison in words [6]: higher solubility than the amorphous or partially crystalline salts
